For orientation: inhibition means the relative decrease from the control value, in per cent.

The results in this text go back to ChEMBL document CHEMBL2163249, “Exploration of natural compounds as sources of new bifunctional scaffolds targeting cholinesterases and beta amyloid aggregation: the case of chelerythrine” (Bioorg Med Chem, 2012).

The target in assay [1] is Cholinesterase (Equus caballus) (UniProt P81908). To be noted: at 2 mg/mL.
Description: Inhibition of horse BChE at 2 mg/ml by Ellman's method
The target in assay [2] is Acetylcholinesterase (Electrophorus electricus) (UniProt O42275). To be noted: at 2 mg/mL.
Description: Inhibition of electric eel AChE at 2 mg/ml by Ellman's method

Chain of Cholinesterase (Equus caballus) (P81908 whole entry): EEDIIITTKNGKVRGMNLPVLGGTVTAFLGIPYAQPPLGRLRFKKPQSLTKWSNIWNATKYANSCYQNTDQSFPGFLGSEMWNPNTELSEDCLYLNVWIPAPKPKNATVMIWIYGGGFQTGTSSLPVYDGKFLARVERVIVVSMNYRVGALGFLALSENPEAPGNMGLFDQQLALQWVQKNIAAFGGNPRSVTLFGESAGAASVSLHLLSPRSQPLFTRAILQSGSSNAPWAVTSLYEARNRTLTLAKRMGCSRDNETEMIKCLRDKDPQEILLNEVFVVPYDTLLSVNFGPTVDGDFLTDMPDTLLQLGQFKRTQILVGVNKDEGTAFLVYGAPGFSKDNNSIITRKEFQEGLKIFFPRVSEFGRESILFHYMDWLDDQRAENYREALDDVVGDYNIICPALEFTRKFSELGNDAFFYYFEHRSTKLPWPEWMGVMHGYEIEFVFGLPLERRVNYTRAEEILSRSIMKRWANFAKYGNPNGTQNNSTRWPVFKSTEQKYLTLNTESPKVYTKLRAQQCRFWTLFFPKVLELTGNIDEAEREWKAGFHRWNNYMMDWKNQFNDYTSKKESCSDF

Regarding `COc1ccc2cc1Oc1ccc(cc1)C[C@H]1c3cc(c(OC)cc3CCN1C)Oc1c(OC)c(OC)c(OC)c3c1[C@H](C2)N(C)CC3`, the figures for the inhibition in assay [1] and in assay [2] were -7.66% and 23.4%, respectively.

Consider `C[C@H]1C(=O)CC[C@@H]2[C@]1(C)CC[C@H]1[C@@]2(C)CC[C@@]2(C)[C@@H]3CC(C)(C)CC[C@]3(C)CC[C@]12C`, for which the inhibition in assay [1] is -0.57%; in assay [2] it was -3.69%.

As for `O=c1cc(-c2ccccc2)oc2cc(O)c(O)cc12`, the inhibition is 1.82% in assay [1] and 23.1% in assay [2].

Turning to `CC(=O)OC[C@]12CCC(C)=C[C@H]1O[C@@H]1[C@H](O)[C@@H](OC(C)=O)[C@@]2(C)[C@]12CO2`, the inhibition stood at 12.3% in assay [1] and 23.8% in assay [2].

For the molecule `O=c1cc(-c2ccc(O)cc2)oc2c(O[C@@H]3O[C@H](CO)[C@@H](O)[C@H](O)[C@H]3O)c(O)c(O[C@@H]3O[C@H](CO)[C@@H](O)[C@H](O)[C@H]3O)c(O)c12`, the inhibition was found to be 1.92% in assay [1] and 22.2% in assay [2].

In the case of `C=C[C@@](C)(/C=C/c1ccc(O)cc1)CCC=C(C)C`, the inhibition in assay [1] was 13.4%; in assay [2], -7.92%.

As for `COc1cc(/C=C/C(=O)O)ccc1O`, the inhibition in assay [1] was -0.02%; in assay [2], -1.29%.

Consider `C=CCc1ccc(O)c(-c2cc(CC=C)ccc2O)c1`, for which the inhibition in assay [1] is 0.25%; in assay [2], -2.45%.

As to `C=C1C(=O)[C@]23[C@H](O)[C@H]1CC[C@H]2[C@@]12CO[C@]3(O)[C@@H](O)[C@@H]1C(C)(C)CC[C@@H]2O`, the inhibition in assay [1] is 0.03%; in assay [2], 24.7%.

For `c1ccc2c(Cc3c[nH]c4ccccc34)c[nH]c2c1`, the inhibition was determined as 21.7% in assay [1] and 4.61% in assay [2].

For the molecule `C[C@@H]1O[C@@H](O[C@H]2[C@H](Oc3cc(O)c4c(=O)cc(-c5ccc(O)cc5)oc4c3)O[C@H](CO)[C@@H](O)[C@@H]2O)[C@H](O)[C@H](O)[C@H]1O`, the inhibition in assay [1] was -2.37%; in assay [2], 27.2%.

Consider `COc1ccc(-c2cc(=O)c3c(OC)c(OC)c(OC)cc3o2)cc1OC`, for which the inhibition in assay [1] stood at 17.1%; in assay [2], 29.6%.

With `OCc1c[nH]c2ccccc12`, the inhibition in assay [1] was 9.11%; in assay [2], -4.82%.

Consider NEOMYCIN SULFATE, for which the inhibition was 10.5% in assay [1] and -9.42% in assay [2].

Regarding `O=C(O)Cc1c[nH]c2ccccc12`, the figures for the inhibition in assay [1] and in assay [2] were -7.42% and 2.98%, respectively.

`Cn1cnc2c1c(=O)[nH]c(=O)n2C`: the results for the inhibition in assay [1] and in assay [2] were 3.88% and 39.4%, respectively.

Consider `C[C@H]1COC2=C1C(=O)C(=O)c1c2ccc2c1CCCC2(C)C`, for which the inhibition in assay [1] came to 12.1%; in assay [2] it was 3.33%.

For `O=c1c(O)c(-c2cc(O)c(O)c(O)c2)oc2cc(O)ccc12`, the inhibition is -7.22% in assay [1] and 15.7% in assay [2].

In the case of `CC1=C(/C=C/C(C)=C\C=C\C(C)=C\C(=O)O)C(C)(C)CCC1`, the inhibition is -2.78% in assay [1] and 14.3% in assay [2].

For `CC1(C)CCC[C@](C)([C@H]2CC[C@]3(C)[C@@H]2[C@H](O)C[C@@H]2[C@@]4(C)CC[C@H](O)C(C)(C)[C@@H]4CC[C@]23C)O1`, the inhibition came to 12.1% in assay [1] and 7.82% in assay [2].

For `C/C=C(/C)C(=O)O[C@H]1C[C@@]2(C)O[C@H]2[C@@H](O)[C@@]2(C)CC[C@@](O)(C(C)C)[C@H]12`, the inhibition is -1.91% in assay [1] and 17.2% in assay [2].

Take `CC[C@H](C)C(=O)O[C@H]1CCC=C2C=C[C@H](C)[C@H](CC[C@@H]3C[C@@H](O)CC(=O)O3)[C@H]21`: the figures for the inhibition in assay [1] and in assay [2] were 7.39% and -9.46%, respectively.

On to `O=C1C[C@@H](c2ccc(O)c(O)c2)Oc2cc(O[C@@H]3O[C@H](CO)[C@@H](O)[C@H](O)[C@H]3O)cc(O)c21`, for which the inhibition in assay [1] was -9.51%; in assay [2], 25.4%.

As to `COc1cc2c(c(OC)c1OC)-c1c(cc3c(c1OC)OCO3)C[C@H](C)[C@H](C)C2`, the inhibition was 12.7% in assay [1] and -4.27% in assay [2].

Take `C[C@@H]1NCCc2cc(O)c(O)cc21`: the inhibition is -1.84% in assay [1] and 19.3% in assay [2].

Regarding `CN1[C@@H]2CC[C@H]1C[C@@H](OC(=O)C(CO)c1ccccc1)C2` (stereo not given in full), the inhibition in assay [1] was found to be 4.01%; in assay [2] it was 15.2%.

Turning to `c1cc2c(cc1[C@H]1OC[C@@H]3[C@H]1CO[C@H]3c1ccc3c(c1)OCO3)OCO2`, the inhibition in assay [1] was -3.5%; in assay [2], 4.7%.

`COc1cc([C@@H]2c3cc4c(cc3[C@H](O)[C@H]3COC(=O)[C@@H]23)OCO4)cc(OC)c1OC`: the inhibition is -2.7% in assay [1] and 27.1% in assay [2].

As to `C[C@@H]1O[C@@H](O[C@@H]2[C@@H](O)[C@H](O)[C@@H](CO)O[C@H]2c2c(O)cc(O)c3c(=O)cc(-c4ccc(O)cc4)oc23)[C@H](O)[C@H](O)[C@H]1O`, the inhibition was -3.3% in assay [1] and 25.9% in assay [2].

In the case of `NC[C@H]1O[C@H](O[C@H]2[C@H](O)[C@@H](O[C@H]3O[C@H](CO)[C@@H](O)[C@H](N)[C@H]3O)[C@H](N)C[C@@H]2N)[C@H](O)[C@@H](O)[C@@H]1O`, the inhibition is -5.91% in assay [1] and 17.6% in assay [2].

In the case of `CC(C)[C@@]1(O)[C@@H](OC(=O)c2cc[nH]c2)[C@@]2(O)[C@]3(C)C[C@@]4(O)O[C@@]5([C@H](O)[C@@H](C)CC[C@]35O)[C@@]2(O)[C@@]41C`, the inhibition is -2.13% in assay [1] and 21.7% in assay [2].

For the molecule `C[C@@H]1[C@H](O)[C@@H](C)/C=C/C=C/C=C/C=C/C=C/C=C/C=C/[C@H](O[C@@H]2O[C@H](C)[C@@H](O)[C@H](N)[C@@H]2O)C[C@@H]2O[C@](O)(C[C@@H](O)C[C@@H](O)[C@H](O)CC[C@@H](O)C[C@@H](O)CC(=O)O[C@H]1C)C[C@H](O)[C@H]2C(=O)O`, the inhibition in assay [1] came to 11.9%; in assay [2], 8.91%.

On to `CCCCCCCCCCCCCC[C@@H](O)[C@@H](O)[C@@H](N)CO`, for which the results for the inhibition in assay [1] and in assay [2] were 7.46% and 24.4%, respectively.

With `COC1=CC(=O)O[C@@H](CCc2ccc3c(c2)OCO3)C1`, the inhibition in assay [1] turned out to be 3.66%; in assay [2] it was 24.8%.

On to `CN1CCc2cc3c(cc2C(=O)Cc2ccc4c(c2C1)OCO4)OCO3`, for which the figures for the inhibition in assay [1] and in assay [2] were 7.56% and 31.1%, respectively.

As to `CN1CCc2cc3c(c4c2[C@H]1Cc1ccccc1-4)OCO3`, the values for the inhibition in assay [1] and in assay [2] were 25.9% and 34.2%, respectively.

For the molecule `Cc1nccc2c1[nH]c1cc(O)ccc12`, the inhibition in assay [1] came to 35.9%; in assay [2] it was 46.1%.

As for `CN1c2ccccc2C(=O)N2CCc3c([nH]c4ccccc34)[C@@H]21`, the inhibition in assay [1] is 26%; in assay [2], 12.4%.

Regarding `CC1=C2C(=O)[C@H]3[C@@H](CC=C4C[C@@H](O)CC[C@@]43C)[C@@H]2CC[C@]12O[C@@H]1C[C@H](C)CN[C@H]1[C@H]2C`, the inhibition is 5.64% in assay [1] and -9.1% in assay [2].

Turning to `COc1ccc2c3c([nH]c2c1)C(C)=NCC3`, the values for the inhibition in assay [1] and in assay [2] were 0.63% and 40.4%, respectively.

Take `C[C@H]1[C@H](C)CC[C@]2(C(=O)O)CC[C@]3(C)C(=CC[C@@H]4[C@@]5(C)CC[C@H](O)C(C)(C)[C@@H]5CC[C@]43C)[C@H]12`: the inhibition turned out to be 5.32% in assay [1] and 16.8% in assay [2].

On to `C[C@H]1CC[C@@H]2N(C1)C[C@H]1[C@@H]3C[C@H]4[C@@H](CC(=O)[C@H]5C[C@@H](O)CC[C@@]54C)[C@@H]3CC[C@H]1[C@]2(C)O`, for which the inhibition in assay [1] stood at 6.5%; in assay [2], 24.9%.

Consider `C/C1=C\CC(C)(C)/C=C/C(=O)/C(C)=C/CC1`, for which the inhibition is 4.2% in assay [1] and -4.84% in assay [2].

For the molecule `COc1cc2c3cc1Oc1c(OC)c(OC)cc4c1[C@@H](Cc1ccc(O)c(c1)Oc1ccc(cc1)C[C@@H]3N(C)CC2)N(C)CC4`, the inhibition in assay [1] is 68.5%; in assay [2] it was 11.4%.

Consider `CCN1C[C@]2(COC)[C@H](O)C[C@H](OC)[C@@]34[C@@H]5C[C@@]6(O)[C@H](OC(=O)c7ccccc7)[C@@H]5[C@@](OC(C)=O)([C@@H]([C@H](OC)[C@H]23)[C@@H]14)[C@@H](O)[C@@H]6OC`, for which the inhibition in assay [1] is 3.01%; in assay [2], 17.6%.

With `COC1=CC(=O)C[C@@H](C)[C@]12Oc1c(Cl)c(OC)cc(OC)c1C2=O`, the results for the inhibition in assay [1] and in assay [2] were -4.49% and -8.73%, respectively.

In the case of `COc1cccc2c1C(=O)c1c(O)c3c(c(O)c1C2=O)C[C@@](O)(C(C)=O)C[C@@H]3O[C@H]1C[C@H](N)[C@H](O)[C@H](C)O1`, the inhibition in assay [1] was -0.13%; in assay [2], 18.1%.

Take `CN1[C@@H]2CC[C@H]1C[C@@H](OC(=O)[C@H](CO)c1ccccc1)C2`: the inhibition in assay [1] is 3.5%; in assay [2], 15.5%.

`COC1=C[C@@H]2[C@@H]3Cc4ccc(OC)c(O)c4[C@]2(CCN3C)CC1=O`: the inhibition in assay [1] was found to be 5.14%; in assay [2], 4.63%.

With `C[N+]1(C)CCC[C@H]1C(=O)[O-]`, the values for the inhibition in assay [1] and in assay [2] were -3.98% and -9.74%, respectively.

Regarding `COc1ccc([C@@H]2CC(=O)c3c(O)cc(O)cc3O2)cc1O`, the inhibition in assay [1] was -8.75%; in assay [2] it was -4.02%.

Consider `CN1C2CCCC1CC(=O)C2`, for which the inhibition in assay [1] was 1.42%; in assay [2], 16.5%.

For the molecule `CCN1C[C@]2(C)CC[C@H](OC)[C@@]34C1[C@]1(OCO[C@@]15C[C@H](OC)[C@H]1C[C@]3(O)[C@@H]5[C@H]1OC)[C@@H](OC(C)=O)[C@H]24`, the values for the inhibition in assay [1] and in assay [2] were 0.02% and 29.5%, respectively.

For `CC1=C2C[C@H]3[C@@H](CC=C4C[C@@H](O)CC[C@@]43C)[C@@H]2CC[C@]12O[C@@H]1C[C@H](C)CN[C@H]1[C@H]2C`, the results for the inhibition in assay [1] and in assay [2] were 5.84% and -3.81%, respectively.

With `CC[C@@H](C(=O)[C@@H](C)[C@@H](O)[C@H](C)[C@@H]1O[C@@H]([C@@H](CC)C(=O)O)CC[C@@H]1C)[C@H]1O[C@]2(C=C[C@@H](O)[C@]3(CC[C@@](C)([C@H]4CC[C@](O)(CC)[C@H](C)O4)O3)O2)[C@H](C)C[C@@H]1C`, the values for the inhibition in assay [1] and in assay [2] were 3.73% and 4.25%, respectively.
